Assay results reported in patent US20150315554A1, “CELL LINES EXPRESSING CFTR AND METHODS OF USING THEM” (Chromocell Corporation, priority 2009, published 2015).
pEC50: −log10 of the molar value. “And” between values parts separate entries of the source, which are not always exact repeats. Identical values can stand only once.

Test system: human CFTR
Assay: high-throughput compatible fluorescence membrane potential assay, forskolin dose-response in stable CFTR-expressing CHO cell lines
Assay type: cell-based
Conditions: stable CFTR-expressing CHO cell line, 15,000 cells/well, 384-well plate, membrane potential dye
Experimental: CHO cell lines stably expressing CFTR were maintained under standard cell culture conditions in Ham's F12 medium supplemented with 10% fetal bovine serum and glutamine. On the day before assay, the cells were harvested from stock plates and plated into black clear-bottom 384 well assay plates at a density that is sufficient to attain 90% confluency on the day of the assay. The assay plates were maintained in a 37° C. cell culture incubator under 5% CO2 for 22-24 hours. The media was then removed from the assay plates and blue membrane potential dye (Molecular Devices Inc.) diluted in loading buffer (137 mM NaCl, 5 mM KCl, 1.25 mM CaCl2, 25 mM HEPES, 10 mM glucose) was added and allowed to incubate for 1 hour at 37° C. The assay plates were then loaded on a fluorescent plate reader (Hamamatsu FDSS) and a cocktail of forskolin and IBMX dissolved in compound buffer (137 mM sodium gluconate, 5 mM potassium gluconate, 1.25 mM CaCl2, 25 mM HEPES, 10 mM glucose) was added. For forskolin dose-response experiments, cells of the produced stable CFTR-expressing cell lines, plated at a density of 15,000 cells/well in a 384-well plate were challenged with increasing concentration of forskolin, a known CFTR agonist. The cellular response as a function of changes in cell fluorescence was monitored over time by a fluorescent plate reader (Hamamatsu FDSS).

pEC50: 6.59 and ~6.60
SMILES: C=C[C@@]1(C)CC(=O)[C@]2(O)[C@@]3(C)[C@@H](O)CCC(C)(C)[C@@H]3[C@H](O)[C@H](OC(C)=O)[C@@]2(C)O1 [forskolin]
